The record followed here is PMC8365602 (Journal of Medicinal Chemistry, 2021).

The test system of one data set is monocytes. Nature of the data set: Monocyte membrane integrity (LDH release). The format is cell-based, human. Conditions: higher concentrations (>1 μM). On the procedure: To measure mitochondrial dehydrogenase activity, 3-(4,5-dimethylthiazol-2-yl)-2,5-diphenyltetrazolium bromide (MTT) (20 μL, 5 mg/mL, Sigma-Aldrich) was added to PBMC. After 4 h in the darkness, the formed formazan product was solubilized (10% SDS in 20 mM HCl) and the absorbance was read at 570 nm using a Multiskan Spectrum microplate reader (Thermo Fisher Scientific).[81]
LDH release was measured in monocytes using a CytoTox 96 nonradioactive cytotoxicity assay (Promega, Madison, WI) according to the manufacturer’s instruction using Triton X-100 (0.8%) as the maximum LDH release control.

The subject of the next data set is PMNL. Nature of the data set: fMLP-induced Ca2+ influx in PMNL. It is filed as cell-based, human. On the procedure:
PMNL (1 × 10^6) were loaded with Fura-2/AM (2 nmol, Thermo Fisher Scientific) for 45 min at 37 °C. […] Intracellular Ca^2+ concentrations were measured using a NOVOstar fluorescence microplate reader (BMG Labtech, Ortenberg, Germany) at 37 °C. The emission wavelength was set to 510 nm and the excitation wavelengths to 340 nm (Ca^2+-bound Fura-2) and 380 nm (free Fura-2).[23] To define 100% Ca^2+ influx, the difference between the maximal influx (cell lysis by Triton X-100) and minimal influx (subsequent chelation of Ca^2+ by EDTA) was measured for each experiment.

A further data set concerns the target T1, human recombinant COX-2 (Homo sapiens, UniProt P35354).
T1 construct: purchased Cayman Chemicals
Nature of the data set: COX-2 activity. It is filed as biochemical. Here is the method:
Purified ovine COX-1 (Cayman Chemicals; 50 units) or human recombinant COX-2 (Cayman Chemicals; 20 units) was dissolved in 100 mM Tris buffer pH 8, 5 mM glutathione, 5 μM hemoglobin, and 100 μM EDTA. COX isoenzymes were preincubated with the vehicle (DMSO) or 27a for 5 min at 4 °C and 1 min at 37 °C. Addition of arachidonic acid (COX-1: 5 μM; COX-2: 2 μM) initiated the formation of COX-derived 12(S)-hydroxy-5-cis-8,10-trans-heptadecatrienoic acid (12-HHT), which was extracted and analyzed by RP-HPLC according to 5-LOX products.

The nature of data set [1]: Concentrations and metabolism of compound in mice with zymosan-induced peritonitis. The format is in vivo. Here is the method:
LCMs, 27a, and 27a metabolites were extracted from PMNL, medium of the liver-on-chip, murine plasma, peritoneal exudate, or homogenized murine tissue as described.[6] In brief, PBS pH 7.4, methanol, chloroform, and saline (final ratio: 14:34:35:17) were successively added together with 13d (9 pmol) as the internal standard. The organic layer was evaporated, and the extracted LCMs were dissolved in methanol.
LCMs, 27a, and 27a metabolites were separated at a flow rate of 0.8 mL/min and a column temperature of 45 °C, with acetonitrile/H2O (10:90) as mobile phase A and acetonitrile as mobile phase B, both acidified with 0.07% formic acid. The linear gradient from A/B = 50:50 to 0:100 within 4.5 min was followed by isocratic elution with A/B = 0:100 for 1 min. MS parameters were adjusted according to Pein et al.[6] and as detailed in Table S3. Signal intensities were normalized to the internal standard 13d, and concentrations were calculated using external calibration curves as specified in Table S3.
Zymosan (2 mg/mL in saline, i.p., 0.5 mL, Sigma-Aldrich) was injected at 30 min (i.p.) or 60 min (p.o.) post compound administration. Mice were sacrificed by inhalation of CO2 after another 30 min to determine LTC4 levels, lipid mediator profiles, metabolites, and vascular permeability and after 4 h to analyze LTB4 levels and cell infiltration.[72] Plasma and peritoneal exudates were collected, and cells were counted in exudates after trypan blue staining. Vascular permeability was measured by injection of Evans blue dye (40 mg/kg in saline, 0.3 mL, Sigma-Aldrich) into the tail vain directly before peritonitis induction.[72] The exudate was centrifuged (3000g, 5 min), and the absorbance was measured at 610 nm (DU730 spectrophotometer, Beckman Coulter, Krefeld, Germany). Levels of LTB4 and cysteinyl-LTs (dominated by LTC4) were quantified in the exudate by ELISA (Enzo Life Sciences, Lörrach, Germany) according to the manufacturer’s instructions. Compound 27a, its metabolites, and lipid mediators were extracted and analyzed by UPLC-MS/MS.

Data set [2] concerns reconstructed human epidermis (RHE). Nature of the data set: Experimental atopic dermatitis in reconstructed human epidermis (RHE). The format is cell-based. Conditions: RHE. Here is the method: (§1) Compound 27a was evaluated in an inflammatory model of RHE by Synelvia S.A.S. (Labège, France) according to the company’s protocol.[88] In brief, primary human keratinocytes were used to generate RHE on polycarbonate filters as described.[88] RHE was allowed to acclimate for 6 days (5% CO2, 37 °C) prior to incubation with 27a (5, 10, 25 μM), dexamethasone (1 μM), or vehicle (0.05% DMSO), and a proinflammatory cytokine cocktail for 4 days at 5% CO2 and 37 °C. The culture medium including compounds and cytokines was changed on days 6, 8, and 10. Each culture condition was repeated three times. Acute cytotoxicity of 27a was excluded at the concentrations studied within 24 h by measuring the mitochondrial dehydrogenase activity (MTT assay).
Morphological changes (i.e., spongiosis and the formation of keratohyalin granules) were evaluated for sections of paraffin-embedded RHEs after hematoxylin-eosin staining.[89] The permeability of the skin barrier was estimated from the transepidermal water loss at the RHE surface.[90] The surface pH was determined with a pH electrode as reported.[89] The permeability of the stratum corneum was addressed by applying Lucifer yellow onto the RHE surface and inspecting the penetration by fluorescence microscopy.[88] TSLP and IL-8 levels were analyzed by ELISA (according to the specifications of Synelvia S.A.S.) in the culture medium on day 2 and day 4 after addition of cytokines, respectively.

The test system of the next data set is human keratinocytes. The data set can be described thus: Keratinocyte cytotoxicity (MTT) in the RHE model. The format is cell-based. To be noted: MTT assay. Here is the method: as §1
In general terms: Tetrazolium dyes change colour on reduction, which living cells bring about.

For data set [3], the target named is triple mutant Trp13Ala, Trp75Ala, and Trp102Ala 5-LOX (3W) (Homo sapiens, UniProt P09917, W103A/W14A/W76A). Nature of the data set: Cell-free activity of 5-LOX triple mutant (3W).
Sequence of triple mutant Trp13Ala, Trp75Ala, and Trp102Ala 5-LOX (3W) (P09917 whole entry W14A/W76A/W103A): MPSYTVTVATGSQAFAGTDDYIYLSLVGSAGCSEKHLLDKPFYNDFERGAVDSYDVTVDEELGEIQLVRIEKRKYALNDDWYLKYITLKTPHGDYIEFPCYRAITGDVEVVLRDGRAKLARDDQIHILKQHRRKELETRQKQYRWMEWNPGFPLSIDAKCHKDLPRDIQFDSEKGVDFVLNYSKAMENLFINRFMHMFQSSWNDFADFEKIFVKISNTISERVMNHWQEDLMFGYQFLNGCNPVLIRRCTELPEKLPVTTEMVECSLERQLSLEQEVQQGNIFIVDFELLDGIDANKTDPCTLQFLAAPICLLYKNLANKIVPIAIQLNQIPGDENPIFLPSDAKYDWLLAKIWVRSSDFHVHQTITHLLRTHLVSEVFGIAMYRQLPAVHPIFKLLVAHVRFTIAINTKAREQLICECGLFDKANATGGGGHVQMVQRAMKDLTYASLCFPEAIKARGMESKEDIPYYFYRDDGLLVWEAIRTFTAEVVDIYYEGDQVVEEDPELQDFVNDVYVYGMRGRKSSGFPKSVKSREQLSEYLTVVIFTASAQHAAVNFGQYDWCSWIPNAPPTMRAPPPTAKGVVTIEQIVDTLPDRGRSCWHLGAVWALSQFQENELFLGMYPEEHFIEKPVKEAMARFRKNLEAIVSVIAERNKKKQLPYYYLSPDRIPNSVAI
Protocol: Human recombinant 5-LOX was expressed in E. coli Bl21 (DE3) cells that were transformed with pT3–5LOX (wt 5-LOX), 5-LOX_3W (triple mutation of Trp102Ala/Trp13Ala/Trp75Ala), or 5-LOX_R (single mutant of the Arg101Asp plasmid) and purified on an ATP-agarose column (Econo-Pac, Bio-Rad, Hercules, CA) by affinity chromatography.[6],[75]
Purified 5-LOX (0.5 μg in PBS pH 7.4 containing 1 mM EDTA and 1 mM ATP) was preincubated with the vehicle (DMSO) or test compounds for 10 min and prewarmed at 37 °C.

T1 sequence (P35354 18-604): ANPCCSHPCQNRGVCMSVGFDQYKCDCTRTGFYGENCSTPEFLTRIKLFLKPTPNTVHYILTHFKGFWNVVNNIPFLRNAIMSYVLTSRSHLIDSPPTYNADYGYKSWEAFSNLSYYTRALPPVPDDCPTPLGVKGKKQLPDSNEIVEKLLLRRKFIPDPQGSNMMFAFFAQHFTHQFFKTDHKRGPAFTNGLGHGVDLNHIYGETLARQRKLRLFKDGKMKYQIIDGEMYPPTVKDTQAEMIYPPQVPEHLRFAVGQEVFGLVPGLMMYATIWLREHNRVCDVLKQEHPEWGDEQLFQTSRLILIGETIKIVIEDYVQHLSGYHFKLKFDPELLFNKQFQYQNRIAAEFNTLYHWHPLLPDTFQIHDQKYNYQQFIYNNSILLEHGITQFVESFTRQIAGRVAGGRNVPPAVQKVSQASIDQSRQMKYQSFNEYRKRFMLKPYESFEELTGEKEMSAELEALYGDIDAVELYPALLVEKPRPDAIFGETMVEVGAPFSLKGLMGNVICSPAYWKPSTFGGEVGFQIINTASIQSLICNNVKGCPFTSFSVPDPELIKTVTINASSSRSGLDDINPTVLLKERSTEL

Consider `C/C(=C\CC/C(C)=C/CC[C@]1(C)CCc2c(C)c(O)c(C)c(C)c2O1)CCC=C(CO)CO` [Compound 27a, α-amplexichromanol], for which the “LDH release from monocytes at higher concentrations” value with monocytes is on record as “induced a rapid release of lactate dehydrogenase”. Besides, the “Ca2+ influx” value in the data set on PMNL (10 μM) is “substantially reduced”. Moreover, the “Intracellular levels of Ca2+” value with PMNL (submicromolar concentrations (≤1 μM)) was “nor influenced intracellular levels of Ca^2+”. The COX-2 inhibition entry at human recombinant COX-2 is listed as “not substantially inhibited”. In data set [1] (CD-1, mouse, plasma, po, mice with acute peritonitis, 10 mg/kg p.o., 90 min post administration), this molecule displayed a concentration at 90 min of 30 to 900 nM. For the same molecule, in data set [1] (mice, 10 mg/kg p.o., plasma), the “Side-chain degradation in mice” value is “resistant to degradation”. The “Time to uptake after oral administration” value in data set [1] (mice, p.o.) is given as ≤ 1 h. Besides, in data set [1] (mice, peritonitis, oral administration 30 mg/kg), the “Concentrations in the peritoneal exudate” value lay in the range of 0.5 to 4 nM. Besides, the TSLP expression result in data set [2] (cytokine cocktail 2 days) is recorded as “did not influence TSLP expression”. Moreover, in data set [2] (cytokine cocktail 4 days), the “Epidermal disorganization induced by cytokine treatment” value is recorded as “attenuated the epidermal disorganization”; the IL-8 levels entry is listed as “reduced IL-8 levels”; the “Skin barrier functions (TEWL, Lucifer yellow)” value was “substantially improved skin barrier functions”; the “pH at the RHE surface” value is listed as “decreased even below the basal level”. In the data set on human keratinocytes, the “Cytotoxic effects on human keratinocytes” value is given as “excluded”. Further, the “Effect of Trp102Ala/Trp13Ala/Trp75Ala triple mutation on 5-LOX inhibition” value in data set [3] is on record as “failed to affect 5-LOX inhibition”.
